pIC50, pKi: −log10 of the molar value. Values joined by “and” are separate entries in the source; they are usually repeats but may differ in a detail not shown here. Identical values can stand only once. Like-named read-outs stand apart in the source and are kept apart here.
Columns and labels:
Aurora-1 (Aurora B) = Aurora-1 (Aurora B) (Homo sapiens, UniProt Q96GD4); test: Aurora-1 (Aurora B) inhibition assay (radiometric); assay type: biochemical; details: read-out: Aurora B kinase Ki value
How it was run: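 Ki values come from non-linear regression of background-corrected initial-rate data. The enzyme was preincubated 10 min at 25° C with compound, then reacted 3 h with 800 μM (final) [γ-^33P]-ATP in HEPES pH 7.5/MgCl2/BSA/glycerol buffer. The reaction was stopped with phosphoric acid and substrate-bound ^33P counted on phosphocellulose.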

JAK3 = molecular target: T1, JAK3 (Homo sapiens, UniProt P52333); test: biochemical
T1 sequence (P52333 1-1124): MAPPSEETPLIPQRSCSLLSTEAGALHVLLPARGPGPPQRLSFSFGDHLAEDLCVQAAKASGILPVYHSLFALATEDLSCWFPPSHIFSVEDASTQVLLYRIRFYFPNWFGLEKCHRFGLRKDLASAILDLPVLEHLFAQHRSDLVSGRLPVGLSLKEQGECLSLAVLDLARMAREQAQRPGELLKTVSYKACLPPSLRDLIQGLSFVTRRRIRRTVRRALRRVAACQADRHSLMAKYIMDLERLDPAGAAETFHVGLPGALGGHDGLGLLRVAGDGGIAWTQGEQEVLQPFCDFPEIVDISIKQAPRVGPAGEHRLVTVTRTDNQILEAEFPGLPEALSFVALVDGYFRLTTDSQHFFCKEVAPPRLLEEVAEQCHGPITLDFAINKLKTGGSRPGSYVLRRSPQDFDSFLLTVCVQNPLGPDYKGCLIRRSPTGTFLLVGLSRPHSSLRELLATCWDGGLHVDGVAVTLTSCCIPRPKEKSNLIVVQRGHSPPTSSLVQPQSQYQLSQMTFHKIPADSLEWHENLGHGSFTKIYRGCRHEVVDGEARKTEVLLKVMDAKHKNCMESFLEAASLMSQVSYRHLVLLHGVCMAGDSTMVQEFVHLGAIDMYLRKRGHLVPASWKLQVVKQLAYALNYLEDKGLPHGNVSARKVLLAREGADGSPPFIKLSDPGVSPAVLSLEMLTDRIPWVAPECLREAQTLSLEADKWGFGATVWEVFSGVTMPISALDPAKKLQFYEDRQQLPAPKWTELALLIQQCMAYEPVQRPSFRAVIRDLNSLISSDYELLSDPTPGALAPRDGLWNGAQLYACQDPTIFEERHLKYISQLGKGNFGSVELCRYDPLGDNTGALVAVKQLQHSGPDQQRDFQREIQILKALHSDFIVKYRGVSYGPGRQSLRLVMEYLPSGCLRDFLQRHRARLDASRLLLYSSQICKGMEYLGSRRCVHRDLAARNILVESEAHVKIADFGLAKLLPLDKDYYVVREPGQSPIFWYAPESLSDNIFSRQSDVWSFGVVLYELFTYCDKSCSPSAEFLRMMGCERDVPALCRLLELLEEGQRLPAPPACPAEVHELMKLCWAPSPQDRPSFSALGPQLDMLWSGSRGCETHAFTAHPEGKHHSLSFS

Aurora-2 (Aurora A) = molecular target: T2, Aurora-2 (Aurora A) (Homo sapiens, UniProt O14965); test: Aurora-2 (Aurora A) inhibition assay, coupled enzyme; assay type: biochemical; details: read-out: Aurora A kinase Ki value
T2 sequence (O14965 1-403): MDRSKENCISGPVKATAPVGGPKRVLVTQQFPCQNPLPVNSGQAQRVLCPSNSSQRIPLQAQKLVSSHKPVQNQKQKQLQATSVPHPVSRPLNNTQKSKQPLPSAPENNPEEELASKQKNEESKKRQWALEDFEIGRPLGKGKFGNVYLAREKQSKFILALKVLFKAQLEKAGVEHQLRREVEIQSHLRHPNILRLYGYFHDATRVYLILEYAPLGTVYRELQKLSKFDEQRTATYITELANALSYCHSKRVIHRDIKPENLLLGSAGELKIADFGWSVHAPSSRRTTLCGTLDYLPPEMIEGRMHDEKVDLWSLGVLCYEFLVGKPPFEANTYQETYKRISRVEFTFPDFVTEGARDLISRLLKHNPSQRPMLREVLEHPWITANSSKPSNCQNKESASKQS
How it was run: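 These rates came from NADH consumption coupled through pyruvate kinase and lactate dehydrogenase (100 mM Hepes pH 7.5, 10 mM MgCl2, 300 μM NADH). Aurora-2 was present at 40 nM, and the reaction ran at 30 °C after a 10 min preincubation.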

Colo205 cells = test: Analysis of cell proliferation and viability; assay type: cell-based; details: Homo sapiens, COLO 205; Colo205 cells, incubated for 72 hours; read-out: IC50 value

Sequence of Aurora-1 (Aurora B) (Q96GD4 whole entry): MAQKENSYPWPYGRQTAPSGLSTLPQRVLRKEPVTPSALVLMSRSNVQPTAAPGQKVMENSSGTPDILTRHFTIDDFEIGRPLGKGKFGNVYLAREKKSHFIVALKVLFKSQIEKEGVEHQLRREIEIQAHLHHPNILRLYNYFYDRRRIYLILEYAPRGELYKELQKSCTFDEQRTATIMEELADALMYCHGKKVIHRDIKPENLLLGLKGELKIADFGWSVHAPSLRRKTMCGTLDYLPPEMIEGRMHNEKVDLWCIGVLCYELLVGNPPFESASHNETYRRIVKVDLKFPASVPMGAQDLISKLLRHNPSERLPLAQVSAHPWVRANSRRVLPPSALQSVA

Compound | pKi (Aurora-1 (Aurora B)) | pKi (JAK3) | pKi (Aurora-2 (Aurora A)) | pIC50 (Colo205 cells) | pKi (JAK3; read-out: JAK3 Ki value)
Cc1cc(Nc2cc(N3CC(F)(C4CC4)C3)nc(Sc3ccc(-c4ncc(C)o4)cc3)n2)[nH]n1 [Compound 175] | 5.70 to 7.30 | 6.30 to 8.00 | 6.70 to 8.30 | < 6.70 | 
Cc1ccc2cc(Sc3nc(Nc4cc(C)[nH]n4)cc(N4CC(N5CCCC5)C4)n3)ccc2n1 [Compound 182] | 7.30 to 8.00 and > 7.60 | 6.30 to 8.00 | 8.30 to 9.00 | ≥ 7.52 | 
CC(=O)Nc1cccc(Sc2nc(Nc3cc(C)n[nH]3)cc(N3CC(F)(C4CC4)C3)n2)c1 [Compound 188] | 7.30 to 8.00 |  | 6.70 to 8.30 | < 6.70 | 6.30 to 8.00
Cc1cc(Nc2cc(N3CC(F)(C4CC4)C3)nc(Sc3ccc4nc(C(F)(F)F)cn4c3)n2)[nH]n1 [Compound 190] | 7.30 to 8.00 |  | 8.30 to 9.00 | 6.70 to 7.52 | 6.30 to 8.00
Cc1cc(Nc2cc(N3CC(N4CCOCC4)C3)nc(Sc3ccc(NC(=O)C4(C(F)(F)F)CC4)cc3)n2)[nH]n1 [Compound 191] | ≥ 8.00 |  | ≥ 9.00 | ≥ 7.52 | 6.30 to 8.00
Cc1ccc2cc(Sc3nc(Nc4cc(C)[nH]n4)cc(N4CC(C5CCC(F)C5)C4)n3)ccc2n1 (centres unmarked) [Compound 198] | 7.30 to 8.00 and > 7.60 |  | 8.30 to 9.00 | ≥ 7.52 | 6.30 to 8.00
Cc1cc(Nc2cc(N3CC(N4CCOCC4)C3)nc(Sc3ccc(NC(=O)CC(F)(F)F)cc3)n2)[nH]n1 [Compound 199] | ≥ 8.00 |  | ≥ 9.00 | ≥ 7.52 | ≥ 8.00
Cc1cc(Nc2cc(N3CC(F)(C4CC4)C3)nc(Sc3ccc4nc(C(F)(F)F)[nH]c4c3)n2)[nH]n1 [Compound 202] | 7.30 to 8.00 and > 7.60 | ≥ 8.00 | 8.30 to 9.00 | 6.70 to 7.52 | 

Source: patent publication US8637511B2, “Aminopyrimidines useful as kinase inhibitors” (Vertex Pharmaceuticals Incorporated, priority 2005, dated 2014)
